US20040266766A1, “Selective urokinase inhibitors” (Wilex AG, priority 2001, published 2004)
Where a name gives a salt, the structure may show the parent alone. Read-outs that look alike come from different tables or passages of the source.

Tests used:
[1] = system: rat breast adenocarcinoma cells; details: after i.v. inoculation of rat breast adenocarcinoma cells; cited from earlier work
rat prostate carcinoma = details: syngenic model for rat prostate carcinoma; cited from earlier work
mouse mammary carcinoma = details: cited from earlier work
urokinase (uPA) = target: T1, urokinase (uPA) (Homo sapiens, UniProt P00749); test: In vitro inhibition of urokinase (Ki according to Dixon, chromogenic substrate); assay type: biochemical
T1 construct: purchased Calbiochem-Novabiochem GmbH, Bad Soden, Germany
Method in brief: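 Chromogenic read-out in 0.05 mol/l Tris, 0.154 mol/l NaCl, pH 8.0, with inhibitor, substrate (Pefachrome uPA, Pefachrome PL or Pefabloc TH) and protease, incubated 10 min at 30 °C. Absorbance at 405 nm was read after ca. 30 min (30 cycles). Ki was derived by Dixon linear regression.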

Plasmin = Plasmin (Homo sapiens, UniProt P00747); test: In vitro inhibition of plasmin (Ki according to Dixon); assay type: biochemical
Method: (§1) In order to determine the inhibitory activity, 200 μl Tris buffer (0.05 mol/l containing the inhibitor, 0.154 mol/l NaCl, pH 8.0), 25 μl substrate (Pefachrome uPA, Pefachrome PL or Pefabloc TH in H2O; Pentapharm Ltd, Basle, Switzerland) and 50 μl urokinase (Calbiochem-Novabiochem GmbH, Bad Soden, Germany) or another appropriate protease e.g. plasmin, thrombin or FXa are incubated for 10 minutes at 30° C. After ca. 30 minutes and 30 cycles the absorption is determined at 405 nm by means of a microplate reader (Mediators PHL, Aureon Biosystems, Vienna, Austria). The Ki values were determined according to Dixon by linear regression using a computer program.

Thrombin = Thrombin (Homo sapiens, UniProt P00734); test: In vitro inhibition of thrombin (Ki according to Dixon); assay type: biochemical
Method: as §1

FXa = FXa (Homo sapiens, UniProt P00742); test: In vitro inhibition of FXa (Ki according to Dixon); assay type: biochemical
Method: as §1

PK = PK (Homo sapiens, UniProt P03952); test: In vitro inhibition of PK (Ki); assay type: biochemical; details: summary table
Method: as §1

Caco-2 cell monolayers = test: Caco-assay: transport across Caco-2 cell monolayers; assay type: in vitro ADME, human; details: for % amount in the basolateral compartment: 10 μg/ml apical, four hours
Method: Transport of the compounds WX-508, WXC-316, WXC-318, WXC-324, WXC-340, WX-532, WX-538, WX-550 and WX-582 across Caco-2 cell monolayers was investigated. In this experiment the bioavailability of the said compounds after oral administration was assessed.
Caco-2-cells (American Type Culture Collection, Rockville, Md., USA) were cultured in Dulbecco's modified Eagle medium (DMEM) (Life Technologies, Gibco BRL, UK) containing 10% vol/vol heat-denatured foetal calf serum (FCS), 1% vol/vol non-essential amino acids, 160 U/ml benzylpenicillin and 100 U/ml streptomycin (Sigma Chemical, St. Louis, Mo., USA). The cells are kept at 37° C. in an atmosphere comprising 95% air and 5% CO2 at 90% relative air humidity. The cells are cultured in […] culture flasks, the medium being replaced every second day and the cells are trypsinized once per week.
For the transport investigations the Caco-2 cells are cultured on porous polycarbonate filter membranes having a pore size of 0.4 μm and a surface of 4.7 cm^2 in clusters of 6 wells (Costar Transwell, Badhoevedorp, Netherlands). The cells are inoculated on each filter at an initial density of 10^4 cells/cm^2. These cells are kept at 37° C. in one of the atmospheres described above. The medium is replaced every second day for a period of three weeks.
On the day of the transport experiment the culture medium was replaced by the same volume of Hank's balanced saline solution (HBSS) buffered with 30 mM HEPES at pH 7.2 (transport medium) and the cells are allowed to equilibrate for 1 hour. Afterwards the apical medium is replaced by 1.5 ml of a solution containing one of the compounds in HBSS/HEPES (10 μg/ml). Cell monolayers are incubated for four hours. Samples of the apical and basolateral compartments are removed at the end of the experiments and used to quantitatively determine the transport of the respective compounds.
The transepithelial electric resistance (TEER) is measured before and after equilibration using a Milicell ERS meter which was connected to a pair of electrodes in order to ensure the integrity of the monolayers formed on the filters. TEER is also measured at the end of the experiments to ensure that the cell monolayer remains coherent.
Samples are taken from the apical and the basolateral side and analysed in a beta counter after adding a scintillation cocktail. All experiments were carried out three times.

[2] = Oral bioavailability and plasma kinetics in mice (serum concentration); assay type: in vivo, Balb/c mice; details: mouse; for concentration at 20 min / concentration at 40 min / concentration at 60 min: female, Balb/c, serum, po; for concentration at 20 min: sample at 20 minutes; for concentration at 40 min: sample at 40 minutes; for concentration at 60 min: sample at 60 minutes; for c in the serum 1st analysis: 10 mg/kg i.v.
mammary carcinoma BN-472 = test: Tumor spreading, tumor growth and metastasizing in a rat breast cancer model; assay type: in vivo, brown Norwegian rats; details: 0.3 mg/kg daily subcutaneously, 4 weeks
Method: 10-25 mm^3 of transplantable metastasising mammary carcinoma BN-472 breast cancer tumor fragments from donor rats were transplanted orthotopically under the mammary fat pad. (Day 0) into 6 to 8 weeks old female brown Norwegian rats. Subcutaneous treatment was started 5 days after tumor inoculation. Each group consisted of 18 animals. The treatment group received a daily dose of 0.3 mg/kg body weight subcutaneously. The treatment-was carried out over a period of 4 weeks.
The dimensions of the subcutaneous tumors and the weight of the animals were determined weekly. At the end of the treatment the animals were sacrificed and tumor weights, organ weights and the number of metastases in relevant tissues were determined.
The data were analyzed using the SigmaStat Vers.2.03 statistical package. Tumor sizes, tumor weights and the weights of the organs were checked with the Shapiro-Wilk W-test for normality of distribution (Royston P., Approximating the Shapiro-Wilk W-test for non-normality. Statistics and Computing 1992, 2:117-119). For each parameter the Shapiro-Wilk W-tests were performed on all data (e.g., tumor weights of all rats), and separately for each treatment group. If one of the P-values was <0.05 the variable was considered to be abnormally distributed and the Mann-Whitney U-test was used to test for significance levels of differences. The Mann-Whitney U-test was used to test for differences in weights of the axillary lymph nodes, intra peritoneal lymph nodes, tumor, and the number of lung foci. Primary and metastatic tumor data at the end of the treatment period were graphically represented using the Box-Whisker graphs, with the box showing the inter-quartile range of values, with a horizontal line at the median value. Whiskers represent the 5th and 95th percentile of values, and the individual values are indicated by dots. The unadjusted level for statistical significance was α=0.05. All tests were two-sided.

uPA = uPA (Homo sapiens, UniProt P00749); details: background, literature; read-out: Ki, uPA (inhibition constant); cited from earlier work
[3] = system: DU145 tumors (a prostate adenocarcinoma cell line); details: SCID mice, orally 125 to 250 mg/kg/day; cited from earlier work
[4] = 30 mg/kg, 30 mg/kg oral, read-out: c in the serum 1st analysis
[5] = 30 mg/kg, 30 mg/kg oral, read-out: c in the serum 2nd analysis
[6] = 300 mg/kg, 300 mg/kg oral, read-out: c in the serum 1st analysis

Chain of Plasmin (P00747 581-810 limits assumed, species assumed): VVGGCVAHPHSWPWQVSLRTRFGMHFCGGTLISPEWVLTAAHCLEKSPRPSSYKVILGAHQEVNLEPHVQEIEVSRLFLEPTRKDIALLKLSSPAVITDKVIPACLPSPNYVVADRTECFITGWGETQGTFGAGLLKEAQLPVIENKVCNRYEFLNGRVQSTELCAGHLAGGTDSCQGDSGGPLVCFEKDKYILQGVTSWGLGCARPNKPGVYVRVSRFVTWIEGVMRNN
Chain of Plasmin (P00747 97-580 partner limits assumed, species assumed): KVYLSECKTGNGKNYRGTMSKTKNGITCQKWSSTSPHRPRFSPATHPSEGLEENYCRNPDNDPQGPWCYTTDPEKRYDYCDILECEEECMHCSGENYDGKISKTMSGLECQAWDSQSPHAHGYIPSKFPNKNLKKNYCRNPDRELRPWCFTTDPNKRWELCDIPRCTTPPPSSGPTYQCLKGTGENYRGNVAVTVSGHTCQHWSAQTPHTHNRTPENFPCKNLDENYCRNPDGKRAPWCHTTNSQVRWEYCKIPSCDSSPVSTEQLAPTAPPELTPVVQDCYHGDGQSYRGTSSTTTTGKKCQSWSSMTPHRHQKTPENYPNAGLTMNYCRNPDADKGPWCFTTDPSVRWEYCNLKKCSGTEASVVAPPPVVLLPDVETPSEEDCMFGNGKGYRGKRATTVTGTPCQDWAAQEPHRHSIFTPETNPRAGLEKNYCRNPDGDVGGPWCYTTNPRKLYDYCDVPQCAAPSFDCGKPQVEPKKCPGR
Chain of PK (P03952 20-638): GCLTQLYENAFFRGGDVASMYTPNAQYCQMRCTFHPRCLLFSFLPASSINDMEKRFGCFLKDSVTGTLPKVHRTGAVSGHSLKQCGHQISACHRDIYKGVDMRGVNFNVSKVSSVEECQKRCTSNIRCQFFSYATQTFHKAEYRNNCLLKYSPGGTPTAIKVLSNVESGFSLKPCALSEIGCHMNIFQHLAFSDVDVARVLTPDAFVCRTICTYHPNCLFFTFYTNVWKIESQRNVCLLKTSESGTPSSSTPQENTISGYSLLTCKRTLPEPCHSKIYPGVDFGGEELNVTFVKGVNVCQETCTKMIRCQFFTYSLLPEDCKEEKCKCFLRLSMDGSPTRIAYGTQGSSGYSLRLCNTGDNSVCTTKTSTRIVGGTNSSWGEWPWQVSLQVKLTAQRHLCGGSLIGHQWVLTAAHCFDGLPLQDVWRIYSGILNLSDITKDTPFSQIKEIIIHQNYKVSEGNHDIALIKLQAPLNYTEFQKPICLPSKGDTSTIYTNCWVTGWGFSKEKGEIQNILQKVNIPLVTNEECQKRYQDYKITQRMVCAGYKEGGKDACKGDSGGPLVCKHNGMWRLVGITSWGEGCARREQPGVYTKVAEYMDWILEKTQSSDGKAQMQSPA
Chain of FXa (P00742 235-488 limits assumed): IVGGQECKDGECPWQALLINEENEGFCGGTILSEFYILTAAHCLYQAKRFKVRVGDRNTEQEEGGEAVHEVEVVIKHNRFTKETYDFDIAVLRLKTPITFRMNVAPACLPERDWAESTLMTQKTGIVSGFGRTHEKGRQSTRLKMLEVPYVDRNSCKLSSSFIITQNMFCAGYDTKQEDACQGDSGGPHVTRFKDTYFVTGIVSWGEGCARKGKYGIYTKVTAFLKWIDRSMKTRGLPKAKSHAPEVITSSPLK
Chain of FXa (P00742 41-179 partner limits assumed): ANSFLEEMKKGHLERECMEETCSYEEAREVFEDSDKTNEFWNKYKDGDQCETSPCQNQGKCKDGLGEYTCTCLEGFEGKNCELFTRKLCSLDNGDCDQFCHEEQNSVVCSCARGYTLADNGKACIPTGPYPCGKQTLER

For `N=C(N)NC(=O)c1nc(Cl)c(N)nc1N` [amiloride], the “formation of lung metastases” value [1] is given as “prevents the formation of lung metastases”.

In the case of `N=C(N)c1cc2c(I)cccc2s1` [B428, 4-iodo-benzo[b]-thiophene-2-carboxamidine], the “tumor growth and formation of metastases” value (rat prostate carcinoma) is given as “decrease in tumor growth and formation of metastases”, the primary tumor growth (mouse mammary carcinoma; administered together with the anti-oestrogen Tamoxifen) is given as “further decrease of primary tumor growth” and the “tumor growth and formation of metastases” value (mouse mammary carcinoma; syngenic model for mouse mammary carcinoma) is given as “decrease in tumor growth and formation of metastases”.

In the case of `N=C(N)Nc1ccc(CNC(=O)CNC(=O)C(CO)NS(=O)(=O)Cc2ccc(Cl)cc2)cc1` (stereo not drawn) [WX-C340, 4-Chlorobenzyl-sulfonyl-(D)-Ser-Gly-(4-guanidinobenzyl)amide hydrochloride], the Ki (urokinase (uPA); list of test substances of Example 17, read-out: Ki human uPA) is reported as 0.01 µM, the Ki (urokinase (uPA); read-out: Ki uPA) is reported as 0.01 µM and the Ki (urokinase (uPA); summary table, read-out: Ki uPA) is reported as 0.01 µM. For the same compound, the “Ki Plasmin” value (Plasmin) was “no inh. at 100 μM *)”, the “Ki Plasmin” value (Plasmin; summary table) was “no inh. at 100 μM *)” and the “Ki Thrombin” value (Thrombin) was “no inh. at 100 μM *)”. For the same compound, the “Ki Thrombin” value (Thrombin; summary table) was “no inh. at 100 μM *)”, the Ki (FXa) was 34 µM and the Ki (PK) was 216 µM. The “% amount in the basolateral compartment” value (Caco-2 cell monolayers; first value column) was 2.4%, the “% amount in the basolateral compartment” value (Caco-2 cell monolayers; second value column) was 0.2% and the “% amount in the basolateral compartment” value (Caco-2 cell monolayers; third value column) was 0.1%. The “Caco-2 assay % basolateral” value (Caco-2 cell monolayers; first series, first value) was 2.4%, the “Caco-2 assay % basolateral” value (Caco-2 cell monolayers; first series, second value) was 0.2% and the “Caco-2 assay % basolateral” value (Caco-2 cell monolayers; first series, third value) was 0.1%. The “Caco-2 assay % basolateral” value (Caco-2 cell monolayers; second series, first value) was 2.3%, the “Caco-2 assay % basolateral” value (Caco-2 cell monolayers; second series, second value) was 0.1% and the “Caco-2 assay % basolateral” value (Caco-2 cell monolayers; second series, third value) was 0.1%. It also gave a concentration at 20 min [2, 4] of 300 ng/mL, a concentration at 20 min [2, 5] of 500 ng/mL and a concentration at 40 min [2, 4] of 300 ng/mL. For the same compound, the concentration at 40 min [2, 5] was 800 ng/mL, the concentration at 60 min [2, 4] was 1400 ng/mL and the concentration at 60 min [2, 5] was 2300 ng/mL. It also gave a concentration at 20 min [2, 6] of 4500 ng/mL, a concentration at 40 min [2, 6] of 4900 ng/mL and a concentration at 60 min [2, 6] of 4300 ng/mL. The “c in the serum 1st analysis” value ([2]; time of sample collection 0) was 51.8 µg/mL, the “c in the serum 1st analysis” value ([2]; time of sample collection 10) was 5.3 µg/mL and the “c in the serum 1st analysis” value ([2]; time of sample collection 30) was 1.7 µg/mL. The “reduction of the axillary lymph node weights” value (mammary carcinoma BN-472; compared with the control group, P=0.006) was 73%, the “reduction in the number of lung foci” value (mammary carcinoma BN-472; compared with the control group, P≦0.001) was 63% and the “reduction of the median tumor weight” value (mammary carcinoma BN-472; P=0.141) was 29%.

In the case of `N=C(N)c1ccc(N)cc1` [p-Aminobenzamidine], the Ki (uPA) is listed as 82 µM, the “growth rate of DU145 tumors” value [3] is listed as “considerable decrease in the growth rate” and the side-effects [3] is listed as “negligibly small”.
